# Data from patent publication US10881638B2, “Eye health composition” (Laboratoires Thea, priority 2015, dated 2021).
# B1: ranibizumab: VEGF inhibitor used since 2007 for the wet form of AMD (antibody, chains of the INN, looked up, V domains shown)
# VH: EVQLVESGGGLVQPGGSLRLSCAASGYDFTHYGMNWVRQAPGKGLEWVGWINTYTGEPTYAADFKRRFTFSLDTSKSTAYLQMNSLRAEDTAVYYCAKYPYYYGTSHWYFDVWGQGTLVTVSS
# VL: DIQLTQSPSSLSASVGDRVTITCSASQDISNYLNWYQQKPGKAPKVLIYFTSSLHSGVPSRFSGSGSGTDFTLTISSLQPEDFATYYCQQYSTVPWTFGQGTKVEIK
# modifications: Fab
# Experiments:
# [1] = test system: VEGFR receptors (VEGFR1 and VEGFR2), p-VEGFR2, VEGF; assay: Western blot of the VEGF pathway in undifferentiated (pathological) ARPE-19 cells; format: cell-based, human; details: undifferentiated ARPE-19, 24 h, 20 μM resveratrol (R20) or equivalent (A20)
# Protocol: Cells studied: culture of undifferentiated ARPE-19 (ATCC® CRL-2302™) (human retinal pigment epithelium) cells.
# The cells were maintained at 37° C., and in the presence of 5% CO2 in the medium DMEM/F12 (GIBCO; 31331), completed with 10% FBS (Lonza) and 15 mM HEPES (pH 7.4; GIBCO).
# b) Incubation Between the Compositions (Formula A or B) and the Cells: 1, 5, 10 or 20 μM.
# The 10 μM equivalent from formula B also corresponding to 0.115 mg/mL of formula B in DMEM/F12+1% FBS w/o phenol red.
# The day prior to treatment, the medium was eliminated and replaced by DMEM/F12 without phenol red (GIBCO; 21041), completed with 1% FBS (Lonza) and 15 mM HEPES (pH 7.4; GIBCO).
# After 24 h of stimulation, the media were eliminated, the cells were washed with PBS 1× then scrubbed in PBS 1×. The cells were centrifuged and the remainder was resuspended in the RIPA buffer along with a cocktail of protease inhibitors (Roche) and phosphatase inhibitors. The cells were lysed in ice for 30 minutes, then centrifuged. The protein concentration was determined by means of a protein quantification kit (Lowry kit, biorad). […] The membranes were again washed 3 times in 0.1% PBS-T and the signal was detected by ECL (Tebu bio). The images were recorded with the ChemiDoc imaging system and analyzed with Quantity One Software (Biorad) software.
# The β-actin was also quantified in order to relativize the levels of expression.
# [2] = test system: VEGFR receptors (VEGFR1 and VEGFR2), p-VEGFR2, VEGF; assay: Western blot of the VEGF pathway in differentiated (healthy) ARPE-19 cells; format: cell-based, human; details: differentiated ARPE-19, 24 h, 20 μM resveratrol (R20)
# Protocol: The protocol used is the same as the one described in the example II-2, except for the cells studied: Cells studied: culture of differentiated ARPE-19 (human retinal pigment epithelium) cells. The undifferentiated cells are seeded in T75 flasks. The cells are maintained at 37° C., and in the presence of 5% CO2 in the medium DMEM/F12 (GIBCO; 31331), completed with 10% FBS (Lonza) and 15 mM HEPES (pH 7.4; GIBCO). When the cells reach confluence, the medium is replaced by DMEM/F12 (GIBCO; 31331), completed with 1% FBS (Lonza) and HEPES (15 mM pH 7.4; GIBCO). The media were changed 2 times per week for 8 weeks. Said cells can be equated with undamaged or healthy retinal cells.
# VEGF [3] = details: in vitro, human retinal pigmentary epithelium cells (HRPE cells); cited from earlier work
# VEGF [4] = details: wet form of AMD, repeated intravitreal injections; cited from earlier work
molecule,measurement,setting,value
Oc1ccc(/C=C/c2cc(O)cc(O)c2)cc1 [resveratrol],"expression of VEGF receptors, resveratrol alone versus composition",[1],makes it possible to reduce the expression of VEGF receptors
same,"effect on VEGF receptors of healthy cells, resveratrol alone",[2],has no effect on healthy cells
same,overexpression of VEGF induced by cytokines,VEGF [3],inhibiting in vitro the overexpression of VEGF
pegaptanib,effect of the treatment,VEGF [4],little effect
B1,unresponsive or no longer responsive to the treatment,VEGF [4],about 30%
